Source: patent US10093653B2, “Vitamin D receptor-coregulator inhibitors” (UWM Research Foundation, Inc., priority 2011, dated 2018)
Converted amounts (≈) assume the structure as drawn.

Experiments:
TRPV6 in DU145 cells = assay: TRPV6 expression, semi-quantitative RT-PCR; assay type: cell-based; conditions: 20 nM
CYP24A1 = CYP24A1 expression levels; assay type: cell-based; conditions: compound in presence and absence of 1,25-(OH)2D3
HEK293T cells = assay: Toxicity by Cell-Titer Glo after the FRET assay; assay type: cell-based; conditions: for Toxicity (%): Conc. 62.5 μM
[1] = PAMPA
[2] = 12 h, pH 7.4
VDR in SKOV-3 cells = assay: VDR expression, western blotting of whole cell lysate; assay type: cell-based; conditions: SKOV-3, 24 hours; 31b 25 and 50 uM, 32b 50 uM
Description: Expression of VDR was analyzed by western blotting of whole cell lysate using monoclonal antibody against VDR (Neomarker, Calif. cat no-RT-200PO).

SKOV-3 = assay: Cytotoxicity, MTS assay; assay type: cell-based; conditions: SKOV-3, within 48 hours
OVCAR-8 = assay: Cytotoxicity, MTS assay; assay type: cell-based; conditions: OVCAR-8, within 48 hours
ECC-1 = assay: Cytotoxicity, MTS assay; assay type: cell-based; conditions: ECC-1 endometrial cancer cell-line, within 48 hours
SKOV-3 cells = assay: Western blots for phospho-p38 MAPkinase and phospho SAPK/JNK; assay type: cell-based; conditions: SKOV-3, 25 uM, within 24 hours
Source text: Vitamin-d/VDR signaling protects the cancer cells from reactive oxygen species (ROS) induced cellular damages.
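Throughout, for Permeability Log(Pe): passive permeability measured by parallel artificial membrane permeability assay, each experiment run in triplicate.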
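Throughout, for Permeability values (log Pe) of standards: passive permeability measured by parallel artificial membrane permeability assay, each experiment run in triplicate.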

| SMILES | Permeability Log(Pe) [1] | Solubility [2] | further results |
| --- | --- | --- | --- |
| C=C1/C(=C\C=C2/CCC[C@]3(C)[C@@H]([C@H](C)CCCC(C)(C)O)CC[C@@H]23)C[C@@H](O)C[C@@H]1O [1,25-(OH)2D3, 1,25-dihydroxyvitamin D3, reference compound] |  |  | TRPV6 expression with VDR ligand (TRPV6 in DU145 cells): up-regulated |
| c1ccc(NC(c2ccccc2)c2c[nH]c3ccccc23)cc1 (stereo not drawn) [Compound 1, N-((1H-indol-3-yl)(phenyl)methyl)aniline] |  |  | Modulation of CYP24A1 expression (CYP24A1): no modulation of CYP24A1 |
| COc1ccc(C(Nc2ccccn2)c2c(C)[nH]c3ccccc23)cc1 (stereo not drawn) [Compound 11] | −6.25 cm/s |  | Toxicity (%) (HEK293T cells): 100% |
| Cc1ccc(C(Nc2ccccn2)c2c(C)[nH]c3ccccc23)cc1 (stereo not drawn) [Compound 12] | −6.10 cm/s |  | Toxicity (%) (HEK293T cells): 90% |
| COc1cccc(C(Nc2ccccn2)c2c(C)[nH]c3ccccc23)c1 (stereo not drawn) [Compound 13] | −6.12 cm/s |  | Toxicity (%) (HEK293T cells): 60% |
| Cc1[nH]c2ccccc2c1C(Nc1ccccn1)c1cccc(Br)c1 (stereo not drawn) [Compound 14] | −6.11 cm/s |  | Toxicity (%) (HEK293T cells): 100% |
| Cc1[nH]c2ccccc2c1C(Nc1ccccn1)c1ccc(Br)cc1 (stereo not drawn) [Compound 15] | −6.01 cm/s |  |  |
| Cc1[nH]c2ccccc2c1C(Nc1ccccn1)c1ccc(F)cc1 (stereo not drawn) [Compound 16] | −6.05 cm/s |  | Toxicity (%) (HEK293T cells): 100% |
| Cc1[nH]c2ccccc2c1C(Nc1ccccn1)c1ccc(C(C)C)cc1 (stereo not drawn) [Compound 17] | −6.12 cm/s |  | Toxicity LD50 (given instead of percentages) (HEK293T cells; footnote b, highly active compounds): 18.0^b μM |
| Cc1[nH]c2ccccc2c1C(Nc1ccccn1)c1cccc(Cl)c1 (stereo not drawn) [Compound 18] | −6.01 cm/s |  | Toxicity (%) (HEK293T cells): 100% |
| Cc1[nH]c2ccccc2c1C(Nc1ccccn1)c1cccc(F)c1 (stereo not drawn) [Compound 19] | −5.99 cm/s |  |  |
| Cc1[nH]c2ccccc2c1C(Nc1ccccc1)c1ccccc1 (stereo not drawn) [Compound 30a, N-((2-methyl-1H-indol-3-yl)(phenyl)methyl)aniline] | −6.00 cm/s | 252.9 µM (≈ 79 µg/mL) |  |
| Cc1[nH]c2ccccc2c1C(Nc1ccccc1)c1ccc(Cl)cc1 (stereo not drawn) [Compound 30b, N-((4-chlorophenyl)(2-methyl-1H-indol-3-yl)methyl)aniline] | −6.03 cm/s | 93.9 µM (≈ 32.6 µg/mL) |  |
| COc1ccc(C(Nc2ccccc2)c2c(C)[nH]c3ccccc23)cc1 (stereo not drawn) [Compound 30c, N-((4-methoxyphenyl)(2-methyl-1H-indol-3-yl)methyl)aniline] | −6.10 cm/s | 237.5 µM (≈ 81.3 µg/mL) |  |
| Cc1ccc(C(Nc2ccccc2)c2c(C)[nH]c3ccccc23)cc1 (stereo not drawn) [Compound 30d, N-((2-methyl-1H-indol-3-yl)(p-tolyl)methyl)aniline] | −6.34 cm/s | 175.1 µM (≈ 57.2 µg/mL) |  |
| Cc1[nH]c2ccccc2c1C(Nc1ccccc1)c1ccc(N(C)C)cc1 (stereo not drawn) [Compound 30e, N,N-dimethyl-4-((2-methyl-1H-indol-3-yl)(phenylamino)methyl)aniline] | −6.88 cm/s | 157.7 µM (≈ 56.1 µg/mL) |  |
| Cc1[nH]c2ccccc2c1C(Nc1ccccc1)c1ccc([N+](=O)[O-])cc1 (stereo not drawn) [Compound 30f, N-((2-methyl-1H-indol-3-yl)(4-nitrophenyl)methyl)aniline] | −6.08 cm/s | 117.6 µM (≈ 42 µg/mL) |  |
| Cc1[nH]c2ccccc2c1C(C)Nc1ccccc1 (stereo not drawn) [Compound 30g, N-(1-(2-methyl-1H-indol-3-yl)ethyl)aniline] | −6.40 cm/s | 189.0 µM (≈ 47.3 µg/mL) |  |
| Cc1[nH]c2ccccc2c1C(Nc1ccccc1)c1ccc2ccccc2c1 (stereo not drawn) [Compound 30h, N-((2-methyl-1H-indol-3-yl)(naphthalen-2-yl)methyl)aniline] | −6.30 cm/s | 67.3 µM (≈ 24.4 µg/mL) |  |
| CNC(=C[N+](=O)[O-])NCCSCc1ccc(CN(C)C)o1 [Ranitidine, reference compound] |  |  | Permeability values (log Pe) of standards [1]: −8.02±0.074 cm/s |
| NC(=O)N1c2ccccc2C=Cc2ccccc21 [carbamazepine, reference compound] |  |  | Permeability values (log Pe) of standards [1]: −6.81±0.0011 cm/s |

Second part, led by results:

| Permeability Log(Pe) [1] | Solubility [2] | SMILES | further results |
| --- | --- | --- | --- |
| −6.41 cm/s | 31.6 µM (≈ 11 µg/mL) | Cc1[nH]c2ccccc2c1C(Nc1ccccc1)c1ccccc1Cl (stereo not drawn) [Compound 31a, N-((2-chlorophenyl)(2-methyl-1H-indol-3-yl)methyl)aniline] |  |
| −6.30 cm/s | 84.2 µM (≈ 31.7 µg/mL) | COc1ccc(NC(c2ccccc2Cl)c2c(C)[nH]c3ccccc23)cc1 (stereo not drawn) [Compound 31c, N-((2-chlorophenyl)(2-methyl-1H-indol-3-yl)methyl)-4-methoxyaniline] |  |
| −6.45 cm/s | 35.9 µM (≈ 13 µg/mL) | Cc1ccc(NC(c2ccccc2Cl)c2c(C)[nH]c3ccccc23)cc1 (stereo not drawn) [Compound 31d, N-((2-chlorophenyl)(2-methyl-1H-indol-3-yl)methyl)-4-methylaniline] |  |
| −7.28 cm/s | 21.0 µM (≈ 8.19 µg/mL) | Cc1[nH]c2ccccc2c1C(Nc1ccc(N(C)C)cc1)c1ccccc1Cl (stereo not drawn) [Compound 31e, N^1-((2-chlorophenyl)(2-methyl-1H-indol-3-yl)methyl)-N^4,N^4-dimethylbenzene-1,4-diamine] |  |
| −7.60 cm/s | 4.9 µM (≈ 1.92 µg/mL) | Cc1[nH]c2ccccc2c1C(Nc1ccc([N+](=O)[O-])cc1)c1ccccc1Cl (stereo not drawn) [Compound 31f, N-((2-chlorophenyl)(2-methyl-1H-indol-3-yl)methyl)-4-nitroaniline] |  |
| −6.22 cm/s | 59.7 µM (≈ 22.5 µg/mL) | COc1ccccc1NC(c1ccccc1Cl)c1c(C)[nH]c2ccccc12 (stereo not drawn) [Compound 31h, N-((2-chlorophenyl)(2-methyl-1H-indol-3-yl)methyl)-2-methoxyaniline] |  |
| −6.58 cm/s | 15.3 µM (≈ 5.31 µg/mL) | Cn1cc(C(Nc2ccccc2)c2ccccc2Cl)c2ccccc21 (stereo not drawn) [Compound 32a, N-((2-chlorophenyl)(1-methyl-1H-indol-3-yl)methyl)aniline] |  |
| −6.51 cm/s | 52.3 µM (≈ 17.4 µg/mL) | Clc1ccccc1C(Nc1ccccc1)c1c[nH]c2ccccc12 (stereo not drawn) [Compound 32b, N-((2-chlorophenyl)(1H-indol-3-yl)methyl)aniline] | Expression of VDR (VDR in SKOV-3 cells): downregulation of VDR; Cytotoxicity, cell viability (SKOV-3): did not show any cytotoxicity; Cytotoxicity, cell viability (OVCAR-8): did not show any cytotoxicity; Cytotoxicity, cell viability (ECC-1): did not show any cytotoxicity; Activation of SAPK/JNK (SKOV-3 cells): did not cause the similar activation; Activation of p38 MAPkinase (SKOV-3 cells): did not cause the similar activation |
| −6.89 cm/s | 11.8 µM (≈ 4.29 µg/mL) | Cc1[nH]c2ccccc2c1C(Sc1ccccc1)c1ccccc1Cl (stereo not drawn) [Compound 32c, 3-((2-chlorophenyl)(phenylthio)methyl)-2-methyl-1H-indole] |  |
